Measurements taken from US6974814B2, “Neuropharmacological treatment of sleep-related breathing disorders” (The Board of Trustees of the University of Illinois, priority 1999, dated 2005).

Assays:
sleep apnea = settings: cited from earlier work; for effect in individuals with central apnea: central apneas
apnea = settings: animal model of sleep apnea; cited from earlier work
[1] = test system: intertrigeminal region of the brainstem; settings: administration into the brainstem; cited from earlier work
[2] = individuals with obstructive sleep apnea

Procedure for spontaneous apneas: Adult, male Sprague-Dawley rats (Sasco-King, Wilmington, Mass.; usually 8 per test group; 300 g) are maintained on a 12-hour light (08:00–20:00 hour)/12-hour dark (20:00–08:00 hour) cycle for one week, housed in individual cages and given ad libitum access to food and water. Following the one week of acclimatization, animals are subjected to the following surgical procedures.
Acclimatized animals are anesthetized for the implantation of cortical electrodes for electroencephalogram (EEG) recording and neck muscle electrodes for electromyogram (EMG) recording using a mixture of ketamine (Vedco, Inc., St. Joseph, Mo.; 100 mg/ml) and acetylpromazine (Vedco, Inc., St. Joseph, Mo.; 10 mg/ml; 4:1, volume/volume) at a volume of 1 ml/kg body weight. The surface of the skull is exposed surgically and cleaned with a 20% solution of hydrogen peroxide followed by a solution of 95% isopropyl alcohol. Next, a dental preparation of sodium fluoride (Flura-GEL®, Saslow Dental, Mt. Prospect, Ill.) is applied to harden the skull above the parietal cortex and allowed to remain in place for 5 minutes. The fluoride mixture is then removed from the skull above the parietal cortex. The EEG electrodes consisting of four stainless steel machine screws, having leads attached thereto, are threaded into the skull to rest on the dura over the parietal cortex. A thin layer of Justi® resin cement (Saslow Dental, Mt. Prospect, Ill.) is applied to cover the screw heads (of screws implanted in the skull) and surrounding skull to further promote the adhesion of the implant. EMG electrodes consisting of two ball-shaped wires are inserted into the bilateral-neck musculature. All leads (i.e., EEG and EMG leads) are soldered to a miniature connector (39F1401, Newark Electronics, Schaumburg, Ill.). Lastly, the entire assembly is fixed to the skull with dental cement.
After surgery, all animals are allowed to recover for one week before being subjected to another surgery that involved implantation of a radiotelemetry transmitter (TA11-PXT, Data Sciences International, St. Paul, Minn.) for monitoring blood pressure (BP) and heart period (HP), estimated as pulse interval. After the animals are anesthetized (as described above), the hair from the subxiphoid space to the pelvis is removed. The entire area is scrubbed with iodine and rinsed with alcohol and saline. A 4–6 cm midline abdominal incision is made to allow good visualization of the area from the bifurcation of the aorta to the renal arteries. A retractor is used to expose the contents of the abdomen and the intestine is held back using saline moistened gauze sponges. […]
Physiological parameters (see below) from each animal are recorded on numerous occasions in random order, with recordings for an individual animal separated by at least 3 days.

Molecule: CNCCCC1c2ccccc2C=Cc2ccccc21 [Protriptyline]
- effect in individuals with obstructive sleep apnea (OSAS) (sleep apnea): variable results
- side effects (sleep apnea; several small trials in OSAS): frequent and significant side effects

Molecule: CC(=O)Nc1nnc(S(N)(=O)=O)s1 [acetazolamide]
- effect in individuals with central apnea (sleep apnea): variable improvement
- effect in individuals with obstructive sleep apnea (OSAS) (sleep apnea): increase in obstructive apneas

Molecule: Nc1ncnc2c1ncn2[C@@H]1O[C@H](CO)[C@@H](O)[C@H]1O [adenosine]
- effect on apnea (apnea): somewhat effective in reducing apnea

Molecule: CCN1CC(CCN2CCOCC2)C(c2ccccc2)(c2ccccc2)C1=O (stereo not shown) [doxapram]
- average arterial oxygen saturation (sleep apnea; [2]): did not alter
- length of apneas (sleep apnea; [2]): decrease the length of apneas

Molecule: N[C@@H](CCC(=O)O)C(=O)O [glutamate]
- effect on breathing (reflex apneas) [1]: provoked reflex apneas

Molecule: C=CCN1CC[C@]23c4c5ccc(O)c4O[C@H]2C(=O)CC[C@@]3(O)[C@H]1C5 [naloxone]
- effect in individuals with obstructive sleep apnea (OSAS) (sleep apnea): only slightly helpful

Molecule: Nc1nc2ccc(OC(F)(F)F)cc2s1 [riluzole]
- average decrease in apnea expression (apneas per hour of NREM sleep) (spontaneous apneas; NREM sleep, 4.0 mg/kg intraperitoneal 15 min before 6 h recording, vs saline, p=0.05): 31%
- animals with a decrease in apnea expression (spontaneous apneas; NREM sleep, 4.0 mg/kg intraperitoneal, vs saline): 5 of 7
- average decrease in apnea expression (apneas per hour of REM sleep) (spontaneous apneas; REM sleep, 4.0 mg/kg intraperitoneal 15 min before 6 h recording, vs saline, p=0.11): 27%
- overall effect on production of spontaneous sleep apneas (spontaneous apneas; both NREM and REM sleep): physiologically significant decrease

Molecule: Cn1c(=O)c2[nH]cnc2n(C)c1=O [theophylline]
- effect in individuals with central apnea (sleep apnea): may benefit
- effect in individuals with obstructive sleep apnea (OSAS) (sleep apnea): of no use

Molecule: medroxyprogesterone
- effect in individuals with obstructive sleep apnea (OSAS) (sleep apnea): no consistent benefit
